{"source": "PubChem BioAssay AID1963965", "about": "(Molecular Pharmacology Branch, DTP, NCI, 2024);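 further: spheroids exposed to compounds for seven days before viability read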;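 on viability, T/C: luminescence used as a proxy for viable cell amount; percent viability relative to DMSO vehicle control as 100%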", "system": "996289-038-R-J1-PDC spheroid viability", "assay": "Anticancer human tumor 996289-038-R-J1-PDC patient-derived colon adenocarcinoma cell line growth inhibition [PI3K]", "details": "spheroids with HUVEC and MSC; for IC50: curve of first compound; for viability, T/C: stronger effect = lower value", "method_in_brief": "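Agents were dosed from a top concentration near clinical Cmax (otherwise 10 microM) in half-log decrements, alone or combined with PI3K inhibitors. The spheroids contain tumor cells plus endothelial (HUVEC) and MSC stroma; viability is measured.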"}
{"smiles": "CCN1CCN(Cc2ccc(Nc3ncc(F)c(-c4cc(F)c5nc(C)n(C(C)C)c5c4)n3)nc2)CC1", "note": "+ COc1c(OCCCN2CCOCC2)ccc2c3n(c(=NC(=O)c4cnc(N)nc4)nc12)CCN3", "values": [{"measurement": "IC50", "setting": "second compound 0.00316 µM", "value": "> 1000", "unit": "nM"}, {"measurement": "IC50", "setting": "second compound 0.01 µM", "value": "> 1000", "unit": "nM"}, {"measurement": "IC50", "setting": "second compound 0.0316 µM", "value": "> 1000", "unit": "nM"}, {"measurement": "IC50", "setting": "second compound 0.1 µM", "value": 41.2, "unit": "nM"}, {"measurement": "IC50", "setting": "second compound 0.316 µM", "value": "< 3.16", "unit": "nM"}, {"measurement": "IC50", "setting": "second compound 1 µM", "value": "< 3.16", "unit": "nM"}, {"measurement": "viability, T/C", "setting": "second compound 0.00316 µM, first compound 0.00316 µM", "value": 107, "unit": "%"}, {"measurement": "viability, T/C", "setting": "second compound 0.00316 µM, first compound 0.01 µM", "value": 90.6, "unit": "%"}, {"measurement": "viability, T/C", "setting": "second compound 0.00316 µM, first compound 0.0316 µM", "value": 92.6, "unit": "%"}, {"measurement": "viability, T/C", "setting": "second compound 0.00316 µM, first compound 0.1 µM", "value": 97.2, "unit": "%"}, {"measurement": "viability, T/C", "setting": "second compound 0.00316 µM, first compound 0.316 µM", "value": 82.9, "unit": "%"}, {"measurement": "viability, T/C", "setting": "second compound 0.00316 µM, first compound 1 µM", "value": 75.8, "unit": "%"}, {"measurement": "viability, T/C", "setting": "second compound 0.01 µM, first compound 0.00316 µM", "value": 105, "unit": "%"}, {"measurement": "viability, T/C", "setting": "second compound 0.01 µM, first compound 0.01 µM", "value": 80.7, "unit": "%"}, {"measurement": "viability, T/C", "setting": "second compound 0.01 µM, first compound 0.0316 µM", "value": 82.5, "unit": "%"}, {"measurement": "viability, T/C", "setting": "second compound 0.01 µM, first compound 0.1 µM", "value": 82.7, "unit": "%"}, {"measurement": "viability, T/C", "setting": "second compound 0.01 µM, first compound 0.316 µM", "value": 79.2, "unit": "%"}, {"measurement": "viability, T/C", "setting": "second compound 0.01 µM, first compound 1 µM", "value": 67.6, "unit": "%"}, {"measurement": "viability, T/C", "setting": "second compound 0.0316 µM, first compound 0.00316 µM", "value": 75.2, "unit": "%"}, {"measurement": "viability, T/C", "setting": "second compound 0.0316 µM, first compound 0.01 µM", "value": 72.5, "unit": "%"}, {"measurement": "viability, T/C", "setting": "second compound 0.0316 µM, first compound 0.0316 µM", "value": 76, "unit": "%"}, {"measurement": "viability, T/C", "setting": "second compound 0.0316 µM, first compound 0.1 µM", "value": 57.3, "unit": "%"}, {"measurement": "viability, T/C", "setting": "second compound 0.0316 µM, first compound 0.316 µM", "value": 59.6, "unit": "%"}, {"measurement": "viability, T/C", "setting": "second compound 0.0316 µM, first compound 1 µM", "value": 53.3, "unit": "%"}, {"measurement": "viability, T/C", "setting": "second compound 0.1 µM, first compound 0.00316 µM", "value": 57.4, "unit": "%"}, {"measurement": "viability, T/C", "setting": "second compound 0.1 µM, first compound 0.01 µM", "value": 52.1, "unit": "%"}, {"measurement": "viability, T/C", "setting": "second compound 0.1 µM, first compound 0.0316 µM", "value": 50.2, "unit": "%"}, {"measurement": "viability, T/C", "setting": "second compound 0.1 µM, first compound 0.1 µM", "value": 47.3, "unit": "%"}, {"measurement": "viability, T/C", "setting": "second compound 0.1 µM, first compound 0.316 µM", "value": 43.7, "unit": "%"}, {"measurement": "viability, T/C", "setting": "second compound 0.1 µM, first compound 1 µM", "value": 35.2, "unit": "%"}, {"measurement": "viability, T/C", "setting": "second compound 0.316 µM, first compound 0.00316 µM", "value": 46.5, "unit": "%"}, {"measurement": "viability, T/C", "setting": "second compound 0.316 µM, first compound 0.01 µM", "value": 33.5, "unit": "%"}, {"measurement": "viability, T/C", "setting": "second compound 0.316 µM, first compound 0.0316 µM", "value": 29.2, "unit": "%"}, {"measurement": "viability, T/C", "setting": "second compound 0.316 µM, first compound 0.1 µM", "value": 27.2, "unit": "%"}, {"measurement": "viability, T/C", "setting": "second compound 0.316 µM, first compound 0.316 µM", "value": 22.7, "unit": "%"}, {"measurement": "viability, T/C", "setting": "second compound 0.316 µM, first compound 1 µM", "value": 24.1, "unit": "%"}, {"measurement": "viability, T/C", "setting": "second compound 1 µM, first compound 0.00316 µM", "value": 21.2, "unit": "%"}, {"measurement": "viability, T/C", "setting": "second compound 1 µM, first compound 0.01 µM", "value": 15.1, "unit": "%"}, {"measurement": "viability, T/C", "setting": "second compound 1 µM, first compound 0.0316 µM", "value": 18.4, "unit": "%"}, {"measurement": "viability, T/C", "setting": "second compound 1 µM, first compound 0.1 µM", "value": 15.5, "unit": "%"}, {"measurement": "viability, T/C", "setting": "second compound 1 µM, first compound 0.316 µM", "value": 17.6, "unit": "%"}, {"measurement": "viability, T/C", "setting": "second compound 1 µM, first compound 1 µM", "value": 19, "unit": "%"}]}
